In PubChem BioAssay (NCI):
Values joined by “and” are separate entries in the source; they are usually repeats but may differ in a detail not shown here. Equal values may be shown once.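 In this assay, cells in 96-well plates receive the compound at five concentrations for 48 hours. Endpoints are linearly interpolated between the surrounding concentrations. The concentration for 50% growth inhibition is given as GI50. TGI is the concentration that stops growth completely.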

Key:
Assay in all cases: inhibition of tumour cell growth, NCI panel, 48 h
[1] = test system: ACHN renal
[2] = test system: HOP-92 NSCLC
[3] = test system: CCRF-CEM leukemia
[4] = test system: HOP-62 NSCLC
[5] = test system: CAKI-1 renal
[6] = test system: 786-0 renal
[7] = test system: U251 CNS
[8] = test system: SK-MEL-2 melanoma
[9] = test system: NCI/ADR-RES ovarian
[10] = test system: HS 578T breast

| SMILES | TGI [1] [µM] | TGI [2] | TGI [3] [µM] | TGI [4] [µM] | TGI [5] [µM] | TGI [6] [µM] | TGI [7] | TGI [8] [µM] | GI50 [1] [µM] | GI50 [2] [µM] | GI50 [9] [µM] | TGI [9] [µM] | GI50 [3] [µM] | GI50 [10] [µM] | TGI [10] [µM] | GI50 [4] [µM] | GI50 [6] [µM] | GI50 [7] [µM] | GI50 [8] [µM] | GI50 [5] [µM] |
| --- | --- | --- | --- | --- | --- | --- | --- | --- | --- | --- | --- | --- | --- | --- | --- | --- | --- | --- | --- | --- |
| Nc1nc(Cl)cc(NCCCCCNc2cc(Cl)nc(N)n2)n1 | 52.2 | > 100 µM | > 100 | > 100 | > 100 | > 100 | > 100 µM | > 100 |  |  |  |  |  |  |  |  |  |  |  |  |
| COc1cc(-c2nc(NC(C)=O)sc2-c2ccnc(NCCNS(=O)(=O)c3ccccc3)n2)ccc1Cl | > 100 | 72 µM | > 100 | > 100 |  | > 100 | > 100 µM | 6.23 | 3.1 | 2.52 | > 100 | > 100 | 4.03 | 6.61 | > 100 | 6.78 | 4.31 | 5.22 | 2.42 |  |
| CN(C)CCCNC(=O)c1ccc2oc3cc4ccccc4c(=O)n3c2c1 | > 50 | > 50 µM |  | > 50 | 36.5 | > 50 | > 50 µM | > 50 | 11.8 | > 50 | > 50 | > 50 |  |  |  | > 50 | > 50 | 37.5 | > 50 | 8.31 |
| CCOC(=O)Cc1nc2ccccc2s1 | 32.1 |  | 72.8 | 52 | 48.1 | 32.9 | 30.7 µM | 36.5 |  |  |  |  |  |  |  |  |  |  |  |  |
| CCc1c2c(nc3cc4c(c(N)c13)OCO4)-c1cc3c(c(=O)n1C2)COC(=O)[C@]3(O)CC | 0.412 | 0.562 µM and 0.992 µM |  |  | 0.00741 | > 100 | 0.0326 µM and 0.174 µM | 0.0424 | < 0.001 | 0.00602 |  | 56.7 |  |  | > 100 | < 0.001 |  | < 0.001 |  | < 0.001 |
| COc1cc2c(c(OC)c1O)-c1ccc(OC)c(=O)cc1[C@@H](NC(=O)C(F)(F)F)CC2 | > 100 | > 100 µM | > 100 | 2.4 | > 100 | > 100 | > 100 µM |  |  |  |  | > 100 |  |  |  |  |  |  |  |  |
| CCOC(CCCNCCCn1c2c(c3cc(OC)c(OC)cc3c1=O)C(=O)c1cc3c(cc1-2)OCO3)OCC | 7.66 | 8.47 µM | 6.24 |  | 7.61 | 10.6 | 9.44 µM | 14.2 | 1.28 | 0.126 | 6.5 | 13.7 | 0.759 | 5.76 | 12.7 |  | 4.35 | 1.51 | 7.59 | 1.43 |
| CCOC(=O)C(Cc1c[nH]c2ccc([N+](=O)[O-])cc12)(NC(C)=O)C(=O)OCC | > 1000 | > 423 µM |  | > 606 | > 1000 | > 802 | > 564 µM | > 1000 | 151 |  | 53.6 | > 1000 |  | 80.8 | > 765 | 304 | 143 | 134 | > 1000 | 34.2 |
| COc1ccc2c(c1O)C(=O)C(CCC(=O)O)CC2 (stereo not drawn) | > 100 | > 100 µM | > 100 | > 100 | > 100 | > 100 | > 100 µM |  |  |  |  |  |  |  |  |  |  |  |  |  |
| CC(=O)[O-].CC(=O)[O-].O=C(N/N=C/c1cc(Cl)cc(Cl)c1O)c1ccncc1.[Ni+2] | > 100 | 76.9 µM | > 100 | > 100 |  | > 100 | > 100 µM | 87.4 |  | 17.1 |  |  |  |  |  |  |  |  | 46.6 |  |
| C=CCCCn1ccc2ccccc21 | > 100 | > 100 µM | > 100 | > 100 |  | > 100 | > 100 µM | > 100 |  |  |  |  |  |  |  |  |  |  |  |  |
| CCCCCCCCCCCCCCCCOCC(CN(C)CCN(C)C)OCCCCCCCCCCCCCCCC (stereo not drawn) | > 100 | > 100 µM | > 100 | > 100 | > 100 | > 100 | > 100 µM | > 100 |  |  |  |  |  |  |  |  |  |  |  |  |
| C[N+](C)(C)CC(=O)N/N=C(\CCC(=O)NCCc1ccccc1)CC(=O)c1ccccc1 | > 100 | > 100 µM | > 100 | > 100 | > 100 | > 100 | > 100 µM | > 100 |  |  |  |  |  |  |  |  |  |  |  |  |
| C#Cc1c(C)c(/C=C/C(C)=C/C=C/C(C)=C/C(=O)OC)n(C)c1C | > 100 | > 100 µM | > 100 | > 100 | > 100 | > 100 | > 100 µM | > 100 |  |  |  |  |  |  |  |  |  |  |  |  |
| C#CCSc1n[nH]c(-c2ccco2)n1 | > 100 | > 100 µM |  | > 100 | > 100 | > 100 | > 100 µM | > 100 |  |  |  | > 100 |  |  | > 100 |  |  |  |  |  |
| Cc1nnc(N=Nc2c(O)[nH]c3c(Cl)cc(Cl)cc23)n1N | > 100 | > 100 µM | > 100 | > 100 | > 100 | > 100 | > 100 µM | > 100 |  |  |  |  |  |  |  |  |  |  |  |  |
| NC(=O)C1c2ccccc2C=Cc2ccccc21 | > 100 | > 100 µM |  | > 100 | > 100 | > 100 | > 100 µM | > 100 | > 100 | 51.6 | > 100 | > 100 |  | > 100 | > 100 | > 100 | > 100 | > 100 | > 100 | > 100 |
| O=C1Nc2cc(Cl)ccc2N=CC1NC(=O)C(c1ccccc1)c1ccccc1Cl (stereo not drawn) | > 100 | > 100 µM | > 100 | > 100 | > 100 | > 100 | > 100 µM | > 100 |  |  |  |  |  |  |  |  |  |  |  |  |
| COc1cccc(Cn2c(-c3nonc3N)nc3ccccc32)c1 | > 100 | 16.4 µM | > 100 | 48.3 | > 100 | > 100 | > 92.2 µM | 15.4 | 0.612 | 0.344 | 0.396 |  | 0.348 |  |  | 0.511 | 0.569 | 0.436 | 0.353 | 0.404 |
| COCc1c(CO)cnc(C)c1OC1OC(CO)C(O)C(O)C1O (stereo not drawn) | > 100 |  |  | > 100 | > 100 | > 100 | > 100 µM | > 100 |  |  |  |  |  |  |  |  |  |  |  |  |
